Columns and labels:
JAK1 (h) = target: T1, JAK1 (h) (Homo sapiens, UniProt P23458); assay: JAK1 (h) kinase assay; format: biochemical; settings: [γ-33P-ATP] 10 μM or KM values; 40 minutes at room temperature
T1 construct: purchased Millipore UK Ltd (assays performed there as a service)
Procedure: (§1) The above assay procedure can be used to determine the IC50 for inhibition and/or the inhibition constant, Ki. […] The IC50 value is estimated by preparing a 10 point curve using a ½ log dilution series (for example, a typical curve may be prepared using the following compound concentrations: 3 μM, 1 μM, 0.3 μM, 0.1 μM, 0.03 μM, 0.01 μM, 0.003 μM, 0.001 μM, 0.0003 μM and 0 μM).
(§2) JAK1 (h) is incubated with 20 mM Tris/HCl pH 7.5, 0.2 mM EDTA, 500 μM […], 10 mM MgAcetate and [γ-^33P-ATP] […] The reaction is initiated by the addition of the MgATP mix. After incubation for 40 minutes at room temperature, the reaction is stopped by the addition of 3% phosphoric acid solution. 10 μL of the reaction is then spotted onto a P30 filtermat and washed three times for 5 minutes in 75 mM phosphoric acid and once in methanol prior to drying and scintillation counting.
(§3) The kinase assays described herein were performed at Millipore UK Ltd, Dundee Technology Park, Dundee DD2 1SW, UK.

JAK2 (h) = target: T2, JAK2 (h) (Homo sapiens, UniProt O60674); assay: JAK2 (h) kinase assay; format: biochemical; settings: [γ-33P-ATP] 10 μM or KM values; 40 minutes at room temperature
T2 construct: purchased Millipore UK Ltd (assays performed there as a service)
Procedure: Kinase assays can be performed by measurement of incorporation of γ-^33P ATP into immobilized myelin basic protein (MBP). High binding white 384 well plates (Greiner) are coated with MBP (Sigma # M-1891) by incubation of 60 μL well of 20 μg/mL MBP in Tris-buffered saline (TBS; 50 mM Tris pH 8.0, 138 mM NaCl, 2.7 mM KCl) for 24 h at 4° C. Plates are washed 3× with 100 μL TBS. Kinase reactions are carried out in a total volume of 34 μL in kinase buffer (according to the need to make, for example, 5 mM Hepes pH 7.6, 15 mM NaCl, 0.01% bovine gamma globulin (Sigma #1-5506), 10 mM MgCl2, 1 mM DTT, 0.02% TritonX-100). Compound dilutions are performed in DMSO and added to assay wells to a final DMSO concentration of 1%. Each data point is measured in duplicate, and at least two duplicate assays are performed for each individual compound determination. Enzyme is added to final concentrations of 10 nM or 20 nM, for example. A mixture of unlabeled ATP and γ-^33P ATP is added to start the reaction (2×10^6 cpm of γ-^33P ATP per well (3000 Ci/mmole) and 10 μM unlabeled ATP, typically. The reactions are carried out for 1 hour at room temperature with shaking. Plates are washed 7× with TBS, followed by the addition of 50 μL well scintillation fluid (Wallac). Plates are read using a Wallac Trilux counter. This is only one format of such assays; various other formats are possible, as known to one skilled in the art.
as §1
as §2, with “JAK2 (h)” for “JAK1 (h)”, “with 8” for “with 20”, “mM MOPS” for “mM Tris/HCl”, “pH 7.0,” for “pH 7.5,”, “EDTA, 100” for “EDTA, 500”
as §3

Aurora-A (h) = target: T3, Aurora-A (h) (Homo sapiens, UniProt O14965); assay: Aurora-A (h) kinase assay; format: biochemical; settings: [γ-33P-ATP] 10 μM or KM values; 40 minutes at room temperature
T3 construct: purchased Millipore UK Ltd (assays performed there as a service)
T3 sequence (O14965 1-403): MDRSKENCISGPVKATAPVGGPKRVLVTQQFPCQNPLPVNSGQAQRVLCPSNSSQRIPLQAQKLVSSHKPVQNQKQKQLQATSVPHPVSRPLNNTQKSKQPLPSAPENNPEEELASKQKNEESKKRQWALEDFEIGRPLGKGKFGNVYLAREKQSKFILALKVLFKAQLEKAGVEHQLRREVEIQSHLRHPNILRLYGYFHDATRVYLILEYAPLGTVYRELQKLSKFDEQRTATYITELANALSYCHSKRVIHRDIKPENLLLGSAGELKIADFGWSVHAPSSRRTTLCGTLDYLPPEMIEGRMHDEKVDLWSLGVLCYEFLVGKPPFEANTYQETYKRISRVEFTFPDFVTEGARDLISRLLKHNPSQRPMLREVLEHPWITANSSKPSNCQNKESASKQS
Procedure: as §1
Aurora-A (h) is incubated with 8 mM MOPS pH 7.0, 0.2 mM EDTA, 200 μM LRRASLG (Kemptide), 10 mM MgAcetate and [γ-^33P-ATP] […] The reaction is initiated by the addition of the MgATP mix. After incubation for 40 minutes at room temperature, the reaction is stopped by the addition of 3% phosphoric acid solution. 10 μL of the reaction is then spotted onto a P30 filtermat and washed three times for 5 minutes in 75 mM phosphoric acid and once in methanol prior to drying and scintillation counting.
as §3

[1] = Compound stability in human liver microsomes; format: in vitro ADME; settings: for half-life at 5 μM: human liver microsomes 0.5 mg protein/mL, compound 5 μM, NADPH 1.0 mM, pH 7.4, 37° C., read-out: Human T1/2; for CLint scaled at 5 μM: liver microsomes, pH 7.4, in vivo CLint extrapolated from human liver microsome incubation
Procedure, shortened: (§4)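 Compounds (5 μM) incubated at 37 °C with human or rat liver microsomes (0.5 mg protein/mL) and 1.0 mM NADPH in 100 mM phosphate buffer pH 7.4, 0.05% DMSO, in duplicate. Sampled 0–60 min, quantified by LC/MS/MS as % of time zero; CLint extrapolated.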

[2] = Compound stability in rat liver microsomes; format: in vitro ADME; settings: for CLint scaled at 5 μM: liver microsomes, pH 7.4, in vivo CLint extrapolated from rat liver microsome incubation; for half-life at 5 μM: rat liver microsomes 0.5 mg protein/mL, compound 5 μM, NADPH 1.0 mM, pH 7.4, 37° C., read-out: Rat T1/2
Procedure, shortened: as §4

[3] = Pharmacokinetics after intravenous and oral administration in rats; format: in vivo; settings: for Clearance (CL) after iv dosing / AUC(0-t) / half-life / Vd: dose 1 mg/kg (Ex. 9: 0.6, Ex. 18: 0.5, Ex. 50: 0.96 mg/kg), iv dosing; for AUC(0-t) / half-life / Vd / bioavailability: rat, plasma; for Vd: read-out: Vss; for bioavailability: oral (generally 5 or 10 mg/kg) versus iv dosing, read-out: F (oral bioavailability)
Procedure, shortened: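 Rats dosed i.v. (about 0.5, 0.6, 1 or 2 mg/kg) or p.o. (5 or 10 mg/kg) as solution, suspension or capsule. Plasma sampled over 24 h and quantified by LC/MS/MS in MRM mode with ESI.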

T2 sequence (O60674 whole entry): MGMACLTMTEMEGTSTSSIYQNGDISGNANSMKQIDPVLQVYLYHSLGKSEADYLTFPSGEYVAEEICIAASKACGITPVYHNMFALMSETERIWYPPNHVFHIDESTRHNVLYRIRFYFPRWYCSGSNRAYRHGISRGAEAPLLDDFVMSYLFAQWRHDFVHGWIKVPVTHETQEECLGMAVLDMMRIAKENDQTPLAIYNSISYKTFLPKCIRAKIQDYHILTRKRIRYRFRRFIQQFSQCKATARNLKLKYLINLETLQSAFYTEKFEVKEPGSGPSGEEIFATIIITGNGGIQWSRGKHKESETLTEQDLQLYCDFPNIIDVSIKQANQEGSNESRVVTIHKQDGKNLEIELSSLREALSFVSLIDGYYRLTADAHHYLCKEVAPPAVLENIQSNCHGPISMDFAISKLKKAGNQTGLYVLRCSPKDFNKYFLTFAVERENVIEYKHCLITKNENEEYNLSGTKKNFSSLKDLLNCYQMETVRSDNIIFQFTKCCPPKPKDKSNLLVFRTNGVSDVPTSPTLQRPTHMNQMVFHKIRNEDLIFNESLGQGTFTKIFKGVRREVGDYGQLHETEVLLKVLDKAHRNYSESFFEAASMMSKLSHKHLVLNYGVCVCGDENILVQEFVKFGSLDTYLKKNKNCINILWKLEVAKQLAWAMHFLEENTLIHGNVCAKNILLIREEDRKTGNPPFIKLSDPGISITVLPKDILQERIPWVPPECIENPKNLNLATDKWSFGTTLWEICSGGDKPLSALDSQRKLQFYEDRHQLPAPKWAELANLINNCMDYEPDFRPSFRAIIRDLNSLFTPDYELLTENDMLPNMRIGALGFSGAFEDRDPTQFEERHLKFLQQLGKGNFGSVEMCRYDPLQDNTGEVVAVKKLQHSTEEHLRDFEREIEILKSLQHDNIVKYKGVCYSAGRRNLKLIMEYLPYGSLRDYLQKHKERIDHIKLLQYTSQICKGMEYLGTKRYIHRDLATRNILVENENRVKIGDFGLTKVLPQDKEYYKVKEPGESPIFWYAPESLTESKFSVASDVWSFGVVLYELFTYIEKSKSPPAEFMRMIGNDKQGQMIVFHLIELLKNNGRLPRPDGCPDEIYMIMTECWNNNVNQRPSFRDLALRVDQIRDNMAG
T1 sequence (P23458 whole entry): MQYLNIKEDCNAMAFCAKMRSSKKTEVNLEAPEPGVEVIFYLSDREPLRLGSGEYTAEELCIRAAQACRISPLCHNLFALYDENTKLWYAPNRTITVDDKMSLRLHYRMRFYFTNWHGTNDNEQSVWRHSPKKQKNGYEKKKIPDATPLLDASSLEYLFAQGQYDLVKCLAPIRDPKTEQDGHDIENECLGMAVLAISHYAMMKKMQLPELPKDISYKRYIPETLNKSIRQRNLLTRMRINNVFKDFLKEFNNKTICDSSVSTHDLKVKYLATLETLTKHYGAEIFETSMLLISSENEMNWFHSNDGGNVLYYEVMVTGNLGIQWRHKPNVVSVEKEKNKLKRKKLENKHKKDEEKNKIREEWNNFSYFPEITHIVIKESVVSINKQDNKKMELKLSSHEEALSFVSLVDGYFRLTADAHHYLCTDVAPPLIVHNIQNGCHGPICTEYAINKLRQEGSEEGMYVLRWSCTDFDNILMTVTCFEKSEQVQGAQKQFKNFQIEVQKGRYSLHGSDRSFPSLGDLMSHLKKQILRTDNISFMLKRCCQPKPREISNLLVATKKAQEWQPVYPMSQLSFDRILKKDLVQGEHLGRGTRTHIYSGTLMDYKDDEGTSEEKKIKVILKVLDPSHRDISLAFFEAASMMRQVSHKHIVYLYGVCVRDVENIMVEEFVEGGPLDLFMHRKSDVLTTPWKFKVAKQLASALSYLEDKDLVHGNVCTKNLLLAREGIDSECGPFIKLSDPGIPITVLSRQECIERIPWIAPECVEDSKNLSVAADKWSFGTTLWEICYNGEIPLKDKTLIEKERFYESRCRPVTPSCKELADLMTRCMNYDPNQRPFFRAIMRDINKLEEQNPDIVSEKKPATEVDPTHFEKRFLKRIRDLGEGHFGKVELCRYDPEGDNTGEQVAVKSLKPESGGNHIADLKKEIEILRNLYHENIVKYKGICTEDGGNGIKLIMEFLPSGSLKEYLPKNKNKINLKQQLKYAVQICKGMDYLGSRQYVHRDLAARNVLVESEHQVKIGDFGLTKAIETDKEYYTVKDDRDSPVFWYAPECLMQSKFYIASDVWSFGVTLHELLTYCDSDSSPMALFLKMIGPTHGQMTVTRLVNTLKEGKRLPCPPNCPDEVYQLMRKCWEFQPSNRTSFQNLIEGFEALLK

Question: For `CC(O)Cc1nc2cc(Nc3ncc(Cl)c(NC4CCN(c5ccc(C#N)cn5)CC4)n3)ccn2n1` (stereo not drawn) [Example 57, 6-(4-((5-chloro-2-((2-(2-hydroxypropyl)-[1,2,4]triazolo[1,5-a]pyridin-7-yl)amino)pyrimidin-4-yl)amino)piperidin-1-yl)nicotinonitrile], which IC50 (JAK1 (h)) is on record?
Answer: The IC50 was 0.9 nM.

Question: And the IC50 (JAK2 (h))?
Answer: The IC50 was 5 nM.

Question: And the IC50 (Aurora-A (h))?
Answer: Its IC50 is > 300 nM.

Question: Which results are given for `CC(C)(O)Cc1cnc2cc(Nc3ncc(Cl)c(NC4CCN(c5ccc(C#N)cn5)CC4)n3)ccn12` [Example 42, 6-(4-((5-chloro-2-((3-(2-hydroxy-2-methylpropyl)imidazo[1,2-a]pyridin-7-yl)amino)pyrimidin-4-yl)amino)piperidin-1-yl)nicotinonitrile]?
Answer: IC50 (JAK1 (h)): < 0.3 nM; IC50 (JAK2 (h)): 23 nM; IC50 (Aurora-A (h)): 1460 nM

Question: What does the source list for `CC(C)(O)Cc1cn2ccc(Nc3ncc(Cl)c(NC4CCN(c5ccc(C#N)nn5)CC4)n3)cc2n1` [Example 38, 6-(4-((5-chloro-2-((2-(2-hydroxy-2-methylpropyl)imidazo[1,2-a]pyridin-7-yl)amino)pyrimidin-4-yl)amino)piperidin-1-yl)pyridazine-3-carbonitrile]?
Answer: IC50 (JAK1 (h)): 0.9 nM; IC50 (JAK2 (h)): 41 nM; IC50 (Aurora-A (h)): 440 nM

Question: For `Cc1cn2ccc(Nc3ncc(Cl)c(NC4CCN(c5ccc(C#N)nn5)CC4)n3)cc2n1` [Example 27, 6-(4-((5-chloro-2-((2-methylimidazo[1,2-a]pyridin-7-yl)amino)pyrimidin-4-yl)amino)piperidin-1-yl)pyridazine-3-carbonitrile], which IC50 (JAK1 (h)) is on record?
Answer: The IC50 was < 0.3 nM.

Question: And the IC50 (JAK2 (h))?
Answer: The IC50 was 10 nM.

Question: What about the IC50 (Aurora-A (h)) of the same molecule?
Answer: The IC50 was 467 nM.

Question: With `COC(=O)Cc1nc2cc(Nc3ncc(Cl)c(NC4CCN(c5ccc(C#N)nn5)CC4)n3)ccn2n1` [Example 58, methyl 2-(7-((5-chloro-4-((1-(6-cyanopyridazin-3-yl)piperidin-4-yl)amino)pyrimidin-2-yl)amino)-[1,2,4]triazolo[1,5-a]pyridin-2-yl)acetate] as the molecule, how does the IC50 (JAK1 (h)) read?
Answer: Its IC50 is 0.8 nM.

Question: What about the IC50 (JAK2 (h)) of the same molecule?
Answer: The IC50 was 27 nM.

Question: What about the IC50 (Aurora-A (h)) of the same molecule?
Answer: Its IC50 is > 300 nM.

Question: Which half-life at 5 μM [1] does the source give for `Cc1nnc2cc(Nc3ncc(Cl)c(NC4CCN(c5ccc(C#N)cn5)CC4)n3)cnn12` [Example 25, 6-(4-((5-chloro-2-((3-methyl-[1,2,4]triazolo[4,3-b]pyridazin-7-yl)amino)pyrimidin-4-yl)amino)piperidin-1-yl)nicotinonitrile] here?
Answer: The half-life at 5 μM was 61 min.

Question: What about the CLint scaled at 5 μM [1] of the same molecule?
Answer: The CLint scaled at 5 μM was 28.5 mL/min/kg.

Question: And the CLint scaled at 5 μM [2]?
Answer: Its CLint scaled at 5 μM is 54.9 mL/min/kg.

Question: What about the half-life at 5 μM [2] of the same molecule?
Answer: Its half-life at 5 μM is 45.2 min.

Question: And the IC50 (JAK1 (h))?
Answer: Its IC50 is 3 nM.

Question: What does the source list for `N#Cc1ccc(N2CCC(Nc3nc(Nc4ccn5cc(C(F)F)nc5c4)ncc3Cl)CC2)nn1` [Example 28, 6-(4-((5-chloro-2-((2-(difluoromethyl)imidazo[1,2-a]pyridin-7-yl)amino)pyrimidin-4-yl)amino)piperidin-1-yl)pyridazine-3-carbonitrile]?
Answer: half-life at 5 μM [1]: 41.5 min; CLint scaled at 5 μM [1]: 41.9 mL/min/kg; CLint scaled at 5 μM [2]: 164 mL/min/kg; half-life at 5 μM [2]: 15.1 min; Clearance (CL) after iv dosing [3]: 0.84 L/h/kg; AUC(0-t) [3]: 1220 ng·h/mL; half-life [3]: 33.6 min; Vd [3]: 0.56 L/kg; bioavailability [3]: 56.1%; IC50 (JAK1 (h)): 0.5 nM

Question: Which half-life at 5 μM [1] does the source give for `CC(C)(O)c1cnc2cc(Nc3ncc(Cl)c(NC4CCN(c5ccc(C#N)nn5)CC4)n3)ccn12` [Example 66, 6-(4-((5-chloro-2-((3-(2-hydroxypropan-2-yl]imidazo[1,2-a]pyridin-7-yl)amino)pyrimidin-4-yl)amino)piperidin-1-yl)pyridazine-3-carbonitrile] here?
Answer: Its half-life at 5 μM is 25.6 min.

Question: And the CLint scaled at 5 μM [1]?
Answer: Its CLint scaled at 5 μM is 67.9 mL/min/kg.

Question: And the CLint scaled at 5 μM [2]?
Answer: The CLint scaled at 5 μM was 68.5 mL/min/kg.

Question: And the half-life at 5 μM [2]?
Answer: Its half-life at 5 μM is 36.2 min.

Question: What about the IC50 (JAK1 (h)) of the same molecule?
Answer: The IC50 was 0.3 nM.

Question: Which results are given for `CC(C)(O)c1nc2cc(Nc3ncc(Cl)c(NC4CCN(c5ccc(C#N)cc5)CC4)n3)ccn2n1` [Example 81, 4-(4-((5-chloro-2-((2-(2-hydroxypropan-2-yl)-[1,2,4]triazolo[1,5-a]pyridin-7-yl)amino)pyrimidin-4-yl)amino)piperidin-1-yl)benzonitrile]?
Answer: half-life at 5 μM [1]: 419 min; CLint scaled at 5 μM [1]: 4.1 mL/min/kg; CLint scaled at 5 μM [2]: 25.5 mL/min/kg; half-life at 5 μM [2]: 97.3 min; Clearance (CL) after iv dosing [3]: 9.75 L/h/kg; AUC(0-t) [3]: 1710 ng·h/mL; half-life [3]: 79.8 min; Vd [3]: 0.946 L/kg; bioavailability [3]: 99.6%; IC50 (JAK1 (h)): < 0.3 nM
